Target: T1, hDNA2 (Homo sapiens, UniProt P51530)
T1 construct: made in house
T1 sequence (P51530 1-1060): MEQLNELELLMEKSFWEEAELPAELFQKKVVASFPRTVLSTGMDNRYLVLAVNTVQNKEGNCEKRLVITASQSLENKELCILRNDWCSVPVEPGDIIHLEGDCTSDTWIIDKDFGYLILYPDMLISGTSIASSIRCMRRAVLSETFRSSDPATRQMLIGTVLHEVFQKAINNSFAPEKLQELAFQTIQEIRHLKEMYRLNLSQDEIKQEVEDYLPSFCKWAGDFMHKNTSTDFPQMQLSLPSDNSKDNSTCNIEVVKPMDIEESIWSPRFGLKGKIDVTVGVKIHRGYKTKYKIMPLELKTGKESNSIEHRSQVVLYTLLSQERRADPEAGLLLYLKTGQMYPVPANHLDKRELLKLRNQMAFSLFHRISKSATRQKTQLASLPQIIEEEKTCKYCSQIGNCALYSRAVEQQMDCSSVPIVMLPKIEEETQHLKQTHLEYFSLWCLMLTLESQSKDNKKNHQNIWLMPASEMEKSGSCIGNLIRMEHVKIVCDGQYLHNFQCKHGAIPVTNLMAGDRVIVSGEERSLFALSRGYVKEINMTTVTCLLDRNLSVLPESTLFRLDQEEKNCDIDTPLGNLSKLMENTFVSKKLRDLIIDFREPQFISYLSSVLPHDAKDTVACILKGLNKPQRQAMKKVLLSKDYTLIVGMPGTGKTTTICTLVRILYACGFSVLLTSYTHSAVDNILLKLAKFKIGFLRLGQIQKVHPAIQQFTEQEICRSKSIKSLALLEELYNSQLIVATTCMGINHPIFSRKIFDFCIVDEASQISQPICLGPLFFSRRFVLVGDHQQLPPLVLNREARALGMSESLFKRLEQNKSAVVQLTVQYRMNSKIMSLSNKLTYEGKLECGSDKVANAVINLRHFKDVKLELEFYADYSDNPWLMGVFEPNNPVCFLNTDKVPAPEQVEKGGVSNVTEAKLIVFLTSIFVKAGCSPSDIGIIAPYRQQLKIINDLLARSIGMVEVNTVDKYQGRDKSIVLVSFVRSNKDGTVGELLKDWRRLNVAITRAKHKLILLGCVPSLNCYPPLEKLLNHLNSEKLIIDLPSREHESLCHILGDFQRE
Assay: 5' flap processing by hDNA2
Format: biochemical
Conditions: DNA2 […], Y DNA substrate 5 nM ends
Description: Nuclease assays were performed in buffer R (20 mM Na-HEPES pH 7.5, 1 mM ATP, 0.1 mM DTT, 100 μg/ml bovine serum albumin, 0.05% Triton X-100, 2 mM MgCl2, 100 mM KCl) and contained 0.5 nM ends (2-kb substrate) or 5 nM ends (the ssDNA oligonucleotide PSOL6929) of DNA. Reactions containing Bloom syndrome also included an ATP regenerating system consisting of 10 mM creatine phosphate and 50 μg/ml creatine kinase. In control reactions, DMSO was used in place of the inhibitor. Reactions with DNA2 alone were incubated at 30 °C, and those with DNA2-Bloom syndrome-Replication protein A and EXO1 were incubated at 37 °C for the indicated times. […] Gels were dried onto DEAE paper on top of Whatman filter paper (GE, Issaquah, WA, USA) and then analyzed in a BioRad Personal Molecular Imager FX phosphorimager. Band intensity was quantified using Image Lab software (Bio-Rad, Hercules, CA, USA). The fraction of DNA substrate digested was determined by measuring the amount of substrate remaining and normalizing to the total substrate in the negative control lane containing no protein.
Figure S2. […] (b) Plots showing quantitation of the experiments shown in a. […] (d) Plots showing quantitation of the experiments shown in c. […] (f) Plot showing quantitation of the experiment in e. […]

| Structure (SMILES) | 5′ flap processing by hDNA2 |
| --- | --- |
| O=C1C(=O)c2cc([N+](=O)[O-])ccc2-c2ccccc21 [NSC-5195242, 2-nitrophenanthrene-9,10-dione] | inhibited |
| NC1=C(Br)C(=O)c2ncccc2C1=O [NSC-105808, 6-amino-7-bromoquinoline-5,8-dione] | inhibited |

— PMC5520492, “Inhibition of DNA2 nuclease as a therapeutic strategy targeting replication stress in cancer cells” (Oncogenesis, 2017)
